Source: paper PMC10930102 (Journal of Enzyme Inhibition and Medicinal Chemistry, 2024)
Read-outs that look alike come from different tables or passages of the source.

What was measured:
ALK = target: T1, ALK (Homo sapiens, UniProt Q9UM73); assay: ALK in vitro enzymatic assay (radioisotope P81 filter-binding, Reaction Biology); type: biochemical
T1 construct: purchased Reaction Biology Corporation

HDAC1 = target: T2, HDAC1 (Homo sapiens, UniProt Q13547); assay: HDAC inhibition assay (fluorogenic peptide, Reaction Biology); type: biochemical; conditions: tested once, ten-dose starting at 30 µM
T2 construct: purchased Reaction Biology Corporation; host or cells: baculovirus expression system in SF9 cells

HDAC6 = target: T3, HDAC6 (Homo sapiens, UniProt Q9UBN7); assay: as above; type: biochemical; conditions: tested once, ten-dose starting at 30 µM
T3 construct: purchased Reaction Biology Corporation; host or cells: baculovirus expression system in SF9 cells
T3 sequence (Q9UBN7 1-1215): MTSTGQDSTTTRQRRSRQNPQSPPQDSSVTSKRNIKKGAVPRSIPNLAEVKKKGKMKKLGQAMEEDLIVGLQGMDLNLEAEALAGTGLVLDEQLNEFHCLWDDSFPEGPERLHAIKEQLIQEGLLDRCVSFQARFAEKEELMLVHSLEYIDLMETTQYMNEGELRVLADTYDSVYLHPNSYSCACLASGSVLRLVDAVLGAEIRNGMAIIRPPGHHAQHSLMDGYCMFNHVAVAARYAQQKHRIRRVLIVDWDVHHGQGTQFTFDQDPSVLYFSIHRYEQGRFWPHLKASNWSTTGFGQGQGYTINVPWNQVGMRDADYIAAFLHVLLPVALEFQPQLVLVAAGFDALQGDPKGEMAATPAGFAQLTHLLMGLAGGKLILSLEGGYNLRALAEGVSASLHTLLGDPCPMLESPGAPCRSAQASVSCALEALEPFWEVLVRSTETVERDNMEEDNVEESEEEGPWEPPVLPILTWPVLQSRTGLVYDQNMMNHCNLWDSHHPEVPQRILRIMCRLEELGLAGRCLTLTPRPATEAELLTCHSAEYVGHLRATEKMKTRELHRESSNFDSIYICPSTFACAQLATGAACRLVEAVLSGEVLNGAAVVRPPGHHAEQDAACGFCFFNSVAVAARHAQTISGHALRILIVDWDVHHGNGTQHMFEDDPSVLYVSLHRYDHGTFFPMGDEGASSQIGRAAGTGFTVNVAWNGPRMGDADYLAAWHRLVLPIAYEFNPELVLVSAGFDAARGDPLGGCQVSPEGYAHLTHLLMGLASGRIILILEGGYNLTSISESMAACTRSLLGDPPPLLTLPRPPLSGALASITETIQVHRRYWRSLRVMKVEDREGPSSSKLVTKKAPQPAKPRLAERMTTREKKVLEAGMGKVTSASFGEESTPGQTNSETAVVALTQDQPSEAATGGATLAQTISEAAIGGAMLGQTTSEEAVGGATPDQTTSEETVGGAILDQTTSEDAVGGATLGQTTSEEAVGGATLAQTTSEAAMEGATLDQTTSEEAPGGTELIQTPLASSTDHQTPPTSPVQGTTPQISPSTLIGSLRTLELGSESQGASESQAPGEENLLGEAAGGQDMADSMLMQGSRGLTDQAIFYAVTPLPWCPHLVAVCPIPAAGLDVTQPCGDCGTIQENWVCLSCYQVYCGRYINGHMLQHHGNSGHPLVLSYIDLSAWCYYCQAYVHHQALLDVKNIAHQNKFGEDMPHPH

HDAC8 = target: T4, HDAC8 (Homo sapiens, UniProt Q9BY41); assay: HDAC inhibition assay (fluorogenic diacylpeptide, Reaction Biology); type: biochemical; conditions: tested once, ten-dose starting at 30 µM
T4 construct: purchased Reaction Biology Corporation; host or cells: baculovirus expression system in SF9 cells
T4 sequence (Q9BY41 1-377): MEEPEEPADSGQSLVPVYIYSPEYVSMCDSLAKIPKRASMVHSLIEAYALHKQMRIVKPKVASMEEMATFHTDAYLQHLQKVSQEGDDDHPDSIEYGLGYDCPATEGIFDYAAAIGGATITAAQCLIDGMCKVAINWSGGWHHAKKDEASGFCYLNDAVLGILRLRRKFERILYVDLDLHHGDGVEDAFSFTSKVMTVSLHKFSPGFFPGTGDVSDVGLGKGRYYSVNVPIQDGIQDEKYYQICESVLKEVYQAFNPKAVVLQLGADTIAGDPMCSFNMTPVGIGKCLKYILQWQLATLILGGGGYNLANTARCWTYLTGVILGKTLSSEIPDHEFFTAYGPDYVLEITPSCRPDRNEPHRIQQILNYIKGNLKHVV

HDAC11 = target: T5, HDAC11 (Homo sapiens, UniProt Q96DB2); assay: HDAC inhibition assay (fluorogenic peptide, Reaction Biology); type: biochemical; conditions: tested once, ten-dose starting at 30 µM
T5 construct: purchased Reaction Biology Corporation; host or cells: baculovirus expression system in SF9 cells
T5 sequence (Q96DB2 1-347): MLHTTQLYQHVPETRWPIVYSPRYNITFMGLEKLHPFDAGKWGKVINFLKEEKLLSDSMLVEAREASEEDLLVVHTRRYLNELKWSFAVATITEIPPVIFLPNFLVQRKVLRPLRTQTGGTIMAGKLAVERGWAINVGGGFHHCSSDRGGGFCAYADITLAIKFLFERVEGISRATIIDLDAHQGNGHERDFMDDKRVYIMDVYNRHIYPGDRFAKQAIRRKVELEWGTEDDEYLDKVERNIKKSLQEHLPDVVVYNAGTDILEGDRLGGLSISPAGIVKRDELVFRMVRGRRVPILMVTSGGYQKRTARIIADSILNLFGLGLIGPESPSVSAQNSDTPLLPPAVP

H2228 = assay: SRB antiproliferation assay; type: cell-based; conditions: Homo sapiens, NCI-H2228, 48 h, ALK-addicted cells, read-out: Antiproliferative activity (IC50) H2228
[1] = tested on: phosphorylation level of Y1604 on ALK; assay: Western blot of ALK phosphorylation in H2228 cells; type: cell-based, human; conditions: 6 h, 3b 2 µM, 3c 4 µM
Description: (§1) Figure 4. Effect of test compounds on H2228 cells. […] (A) Western blots of phosphorylated tyrosine residue 1640 on ALK as well as acetylated (Ac) α-tubulin and histone H3 with their corresponding total proteins for normalisation. GAPDH was used as a loading control. (B) Quantification of western blotting results using Image J. Error bars indicate ± S.D.E. *p-Value ≤ 0.05, **p-value ≤ 0.01, ***p-value ≤ 0.001.
(§2) Treated cells were washed three times with ice-cold phosphate-buffered saline and lysed in lysis buffer containing 100 mM Tris-HCl, 12 mM sodium deoxycholate, 12 mM sodium lauroylsarcosinate, and protease inhibitor cocktail (BioTools). Cells were heated in lysis buffer at 95 °C for 5 min and then the cell membrane was broken up by sonication (Bioruptor). Cellular debris and unbroken cells were removed by centrifugation (12,500 × g for 30 min, 4 °C). Protein concentration was determined using the bicinchoninic acid assay (Thermo). Cell extracts (20 μg) were resolved by 12% sodium dodecyl sulfate-polyacrylamide gel electrophoresis (SDS-PAGE), transferred to PVDF membranes, and probed separately with antibodies for Ac-histone H3, Ac-α-tubulin, histone H3, α-tubulin, HDAC1, HDAC6, HDAC8 and GAPDH. The antibodies of GAPDH, HDAC1, and HDAC8 were purchased from ABclonal and all other antibodies were from Cell Signalling Technology. Antibody signals were detected using an enhanced chemiluminescence system.

[2] = tested on: acetylated histone H3, a substrate of class I HDAC; assay: Western blot of acetylated histone H3 in H2228 cells; type: cell-based, human; conditions: 6 h, 3b 2 µM
Description: as §1
as §2, with “The antibodies of GAPDH, HDAC1, and HDAC8 were purchased from ABclonal and all other antibodies were from Cell Signalling Technology.” left out

IGF1R = target: T6, IGF1R (Homo sapiens, UniProt P08069); set-up: method as in PMID 22734674; conditions: cited from earlier work
T6 construct: purchased Reaction Biology Corporation

c-Src = target: T7, c-Src (Homo sapiens, UniProt P12931); set-up: method as in PMID 22734674; conditions: cited from earlier work
T7 construct: purchased Reaction Biology Corporation

MCF7 = assay: SRB antiproliferation assay; type: cell-based; conditions: Homo sapiens, 48 h, read-out: Antiproliferative activity (IC50) MCF7
U87MG = assay: SRB antiproliferation assay; type: cell-based; conditions: Homo sapiens, U-87 MG, 48 h, read-out: Antiproliferative activity (IC50) U87MG
A549 = assay: SRB antiproliferation assay; type: cell-based; conditions: Homo sapiens, 48 h, read-out: Antiproliferative activity (IC50) A549
[3] = tested on: protein expression level of HDAC1, HDAC6, or HDAC8; assay: Western blot of HDAC protein expression; type: cell-based, human; conditions: western blot after treatment (supplemental Figure S3)
Procedure: as §2
Figure S3. Western blots of HDAC1, HDAC6, and HDAC8 after drug treatment and vehicle control
activity was assessed by MTS assay, and the concentration of inhibitors was determined to be half of their
was tested five times, and the results were normalized to 1. (blank) […]

CYP1A2 = target: T8, CYP1A2 (Homo sapiens, UniProt P05177); assay: CYP450 inhibition assay; type: in vitro ADME; conditions: human recombinant enzyme
T8 construct: purchased Reaction Biology Corporation; host or cells: CYP cDNA baculovirus expression systems

CYP2C19 = target: T9, CYP2C19 (Homo sapiens, UniProt P33261); assay: CYP450 inhibition assay; type: in vitro ADME; conditions: human recombinant enzyme
T9 construct: purchased Reaction Biology Corporation; host or cells: CYP cDNA baculovirus expression systems
Procedure: Assays were performed by Reaction Biology Corporation. […] CYP assays used human recombinant CYP1A2, CYP2C9, CYP2C19, CYP2D6, and CYP3A4 expressed in CYP cDNA baculovirus expression systems. […] Substrates used were 3-cyano-7-ethoxycoumarin for CYP1A2, 2C19, and 2D6; Vivid OOMR Substrate for CYP2C9; and Vivid BOMR Substrate for CYP3A4. hERG inhibition assays involved a binding competition between the tested compounds and a fluorescently labelled compound tracer (Predictor hERG Tracer Red) for membrane-bound hERG (Predictor hERG Membrane). E-4031 served as the positive control.

[4] = 20 μM ATP, ten-dose IC50 mode, duplicate, average

T2 sequence (Q13547 whole entry): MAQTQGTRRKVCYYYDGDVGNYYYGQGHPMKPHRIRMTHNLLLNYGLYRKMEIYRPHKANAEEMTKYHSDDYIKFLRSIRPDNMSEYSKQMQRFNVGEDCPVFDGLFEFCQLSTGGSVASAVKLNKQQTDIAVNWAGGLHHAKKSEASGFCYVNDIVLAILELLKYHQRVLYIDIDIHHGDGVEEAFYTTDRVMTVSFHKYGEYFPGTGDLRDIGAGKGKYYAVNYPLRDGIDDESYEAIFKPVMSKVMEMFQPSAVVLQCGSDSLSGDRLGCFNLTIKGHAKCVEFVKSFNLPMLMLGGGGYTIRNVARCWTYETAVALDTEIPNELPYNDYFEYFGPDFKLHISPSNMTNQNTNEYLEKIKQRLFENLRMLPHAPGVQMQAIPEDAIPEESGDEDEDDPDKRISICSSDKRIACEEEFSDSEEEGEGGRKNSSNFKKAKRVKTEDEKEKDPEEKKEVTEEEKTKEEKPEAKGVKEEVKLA
T1 sequence (Q9UM73 19-1620): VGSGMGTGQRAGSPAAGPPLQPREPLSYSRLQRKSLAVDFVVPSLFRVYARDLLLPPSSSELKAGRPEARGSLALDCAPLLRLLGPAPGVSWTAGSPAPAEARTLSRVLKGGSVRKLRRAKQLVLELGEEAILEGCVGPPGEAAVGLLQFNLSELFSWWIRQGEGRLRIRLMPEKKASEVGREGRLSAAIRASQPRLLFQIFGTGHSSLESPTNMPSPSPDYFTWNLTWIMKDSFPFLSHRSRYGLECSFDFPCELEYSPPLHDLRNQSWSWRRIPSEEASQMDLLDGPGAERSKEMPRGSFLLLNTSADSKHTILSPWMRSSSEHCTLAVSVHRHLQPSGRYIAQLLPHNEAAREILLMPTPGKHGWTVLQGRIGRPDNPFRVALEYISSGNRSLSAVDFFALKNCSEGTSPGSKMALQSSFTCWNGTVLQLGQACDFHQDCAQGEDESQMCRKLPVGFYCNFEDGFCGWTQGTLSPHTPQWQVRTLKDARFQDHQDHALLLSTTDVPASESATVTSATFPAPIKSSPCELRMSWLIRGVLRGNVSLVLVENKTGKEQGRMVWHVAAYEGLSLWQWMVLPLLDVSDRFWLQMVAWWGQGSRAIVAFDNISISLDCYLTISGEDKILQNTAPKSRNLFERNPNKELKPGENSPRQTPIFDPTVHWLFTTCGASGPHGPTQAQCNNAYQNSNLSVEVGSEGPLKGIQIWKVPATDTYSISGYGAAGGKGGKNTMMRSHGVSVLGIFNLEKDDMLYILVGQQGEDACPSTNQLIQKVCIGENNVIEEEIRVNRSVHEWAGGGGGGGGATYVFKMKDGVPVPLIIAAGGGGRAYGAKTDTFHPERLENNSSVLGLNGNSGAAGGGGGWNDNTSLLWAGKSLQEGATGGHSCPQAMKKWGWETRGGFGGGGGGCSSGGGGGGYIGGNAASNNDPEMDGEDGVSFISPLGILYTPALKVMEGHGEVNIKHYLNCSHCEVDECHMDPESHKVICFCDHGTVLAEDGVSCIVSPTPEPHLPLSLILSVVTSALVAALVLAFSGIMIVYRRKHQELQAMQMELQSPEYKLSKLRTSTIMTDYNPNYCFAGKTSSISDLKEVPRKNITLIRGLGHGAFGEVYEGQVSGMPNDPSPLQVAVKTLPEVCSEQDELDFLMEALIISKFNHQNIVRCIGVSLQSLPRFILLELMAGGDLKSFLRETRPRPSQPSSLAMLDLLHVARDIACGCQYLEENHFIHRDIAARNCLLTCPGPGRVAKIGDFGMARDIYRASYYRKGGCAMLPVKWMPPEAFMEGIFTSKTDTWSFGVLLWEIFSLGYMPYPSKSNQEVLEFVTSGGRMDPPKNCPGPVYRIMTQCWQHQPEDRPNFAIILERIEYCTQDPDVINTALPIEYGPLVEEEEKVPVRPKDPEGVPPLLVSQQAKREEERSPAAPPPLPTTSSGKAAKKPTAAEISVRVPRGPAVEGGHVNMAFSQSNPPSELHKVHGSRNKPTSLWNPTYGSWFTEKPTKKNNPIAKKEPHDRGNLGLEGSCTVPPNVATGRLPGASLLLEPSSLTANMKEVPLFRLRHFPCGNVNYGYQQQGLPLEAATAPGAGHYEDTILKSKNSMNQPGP
T8 sequence (P05177 whole entry): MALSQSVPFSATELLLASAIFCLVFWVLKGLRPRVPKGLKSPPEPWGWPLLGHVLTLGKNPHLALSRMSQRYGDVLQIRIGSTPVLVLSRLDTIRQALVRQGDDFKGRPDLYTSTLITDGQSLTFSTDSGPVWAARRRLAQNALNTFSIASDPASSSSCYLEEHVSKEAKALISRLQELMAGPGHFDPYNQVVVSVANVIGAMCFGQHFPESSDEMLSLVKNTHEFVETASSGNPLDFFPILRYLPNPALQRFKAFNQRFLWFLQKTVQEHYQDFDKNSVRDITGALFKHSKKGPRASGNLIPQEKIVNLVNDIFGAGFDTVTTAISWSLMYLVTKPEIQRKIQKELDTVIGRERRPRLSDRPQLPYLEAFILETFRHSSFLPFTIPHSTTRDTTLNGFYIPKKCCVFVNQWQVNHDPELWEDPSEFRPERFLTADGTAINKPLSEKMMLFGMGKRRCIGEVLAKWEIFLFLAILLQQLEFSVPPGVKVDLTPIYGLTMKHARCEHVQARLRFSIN
T7 sequence (P12931 whole entry): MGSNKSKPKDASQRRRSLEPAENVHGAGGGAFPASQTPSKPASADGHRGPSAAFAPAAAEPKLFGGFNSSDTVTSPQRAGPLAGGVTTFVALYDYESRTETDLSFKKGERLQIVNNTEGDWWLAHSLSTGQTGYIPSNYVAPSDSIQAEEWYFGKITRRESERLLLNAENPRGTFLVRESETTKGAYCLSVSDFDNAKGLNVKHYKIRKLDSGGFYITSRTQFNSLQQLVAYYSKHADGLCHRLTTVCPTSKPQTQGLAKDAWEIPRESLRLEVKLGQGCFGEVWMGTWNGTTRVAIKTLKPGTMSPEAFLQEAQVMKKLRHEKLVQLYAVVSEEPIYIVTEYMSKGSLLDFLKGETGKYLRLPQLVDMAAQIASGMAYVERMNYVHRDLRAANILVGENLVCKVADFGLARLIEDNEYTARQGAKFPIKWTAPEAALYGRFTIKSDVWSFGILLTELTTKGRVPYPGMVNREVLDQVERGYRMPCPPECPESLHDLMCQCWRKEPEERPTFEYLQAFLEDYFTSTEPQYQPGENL
T6 sequence (P08069 31-1367): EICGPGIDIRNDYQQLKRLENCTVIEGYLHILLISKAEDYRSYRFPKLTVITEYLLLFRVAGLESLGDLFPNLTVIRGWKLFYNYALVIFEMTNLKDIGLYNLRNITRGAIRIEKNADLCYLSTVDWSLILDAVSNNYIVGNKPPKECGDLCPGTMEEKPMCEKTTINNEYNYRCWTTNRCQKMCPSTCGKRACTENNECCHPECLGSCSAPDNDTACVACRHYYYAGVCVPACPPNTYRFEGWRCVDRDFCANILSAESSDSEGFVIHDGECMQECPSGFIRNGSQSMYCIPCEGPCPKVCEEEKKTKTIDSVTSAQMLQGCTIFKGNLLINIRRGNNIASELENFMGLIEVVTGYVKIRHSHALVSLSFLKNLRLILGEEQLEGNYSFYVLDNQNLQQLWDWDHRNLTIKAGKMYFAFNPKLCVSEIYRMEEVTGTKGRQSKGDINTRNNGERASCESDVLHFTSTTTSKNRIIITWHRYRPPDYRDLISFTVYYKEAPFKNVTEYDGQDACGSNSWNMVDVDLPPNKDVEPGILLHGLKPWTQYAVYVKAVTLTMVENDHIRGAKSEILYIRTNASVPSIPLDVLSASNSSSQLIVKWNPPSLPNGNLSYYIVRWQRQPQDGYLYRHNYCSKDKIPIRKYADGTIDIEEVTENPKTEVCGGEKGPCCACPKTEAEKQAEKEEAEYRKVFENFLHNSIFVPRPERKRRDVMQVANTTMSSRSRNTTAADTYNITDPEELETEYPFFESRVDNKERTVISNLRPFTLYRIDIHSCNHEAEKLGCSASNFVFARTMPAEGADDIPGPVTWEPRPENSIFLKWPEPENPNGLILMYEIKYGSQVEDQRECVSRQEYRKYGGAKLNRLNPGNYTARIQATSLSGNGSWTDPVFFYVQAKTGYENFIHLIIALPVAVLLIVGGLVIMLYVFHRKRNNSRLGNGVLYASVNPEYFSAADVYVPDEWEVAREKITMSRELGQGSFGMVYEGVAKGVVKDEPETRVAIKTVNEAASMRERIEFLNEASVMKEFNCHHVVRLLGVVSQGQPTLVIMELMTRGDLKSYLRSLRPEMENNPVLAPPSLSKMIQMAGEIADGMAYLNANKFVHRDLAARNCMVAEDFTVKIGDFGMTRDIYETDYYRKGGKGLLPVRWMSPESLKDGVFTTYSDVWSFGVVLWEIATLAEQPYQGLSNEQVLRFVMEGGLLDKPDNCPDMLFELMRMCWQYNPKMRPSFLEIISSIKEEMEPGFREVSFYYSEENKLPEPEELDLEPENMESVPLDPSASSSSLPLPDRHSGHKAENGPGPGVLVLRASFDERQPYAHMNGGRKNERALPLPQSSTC
T9 sequence (P33261 whole entry): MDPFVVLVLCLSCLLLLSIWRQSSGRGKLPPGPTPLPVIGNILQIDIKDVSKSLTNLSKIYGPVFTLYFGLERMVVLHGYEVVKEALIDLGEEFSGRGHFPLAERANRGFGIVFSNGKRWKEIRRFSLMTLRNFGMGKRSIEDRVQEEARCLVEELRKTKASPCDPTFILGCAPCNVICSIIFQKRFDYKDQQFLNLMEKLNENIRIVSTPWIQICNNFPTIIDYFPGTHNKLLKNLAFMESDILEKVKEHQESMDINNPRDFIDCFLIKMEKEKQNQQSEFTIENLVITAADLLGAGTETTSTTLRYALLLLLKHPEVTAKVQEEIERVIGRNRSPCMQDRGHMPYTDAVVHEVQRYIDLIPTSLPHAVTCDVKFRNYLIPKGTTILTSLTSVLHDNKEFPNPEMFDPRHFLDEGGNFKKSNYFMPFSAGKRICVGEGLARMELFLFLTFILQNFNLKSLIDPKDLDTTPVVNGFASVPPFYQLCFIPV

Structure (SMILES) | IC50 (ALK; [4]) [µM] | IC50 (HDAC1) [µM] | IC50 (HDAC6) [µM] | IC50 (HDAC8) [µM] | IC50 (HDAC11) [µM] | IC50 (H2228) [µM] | other results
CCCCc1nc2cc(/C=C/C(=O)NO)ccc2n1CCN(CC)CC [Pracinostat (2), Pracinostat, reference compound] |  |  |  |  |  | 0.69 ± 0.05 | phosphorylation level of Y1604 on ALK [1]: enhanced the ALK kinase activity; acetylated histone H3 level [2]: highest level of acetylated histone
CC(C)NC(=O)[C@H]1CC[C@@H](n2/c(=N/C(=O)c3cc(F)cc(F)c3)[nH]c3ccc(CN4CCC(C(C)(C)O)CC4)cc32)CC1 [Compound 1] |  |  |  |  |  |  | IC50 (IGF1R): 0.1 µM; IC50 (c-Src): 0.42 µM
C[C@@H](Oc1cc(-c2cnn(C3CCNCC3)c2)cnc1N)c1c(Cl)ccc(F)c1Cl [Crizotinib, reference compound] |  |  |  |  |  | 0.13 ± 0.05 | IC50 (MCF7): 0.095 ± 0.024 µM; IC50 (U87MG): 0.048 ± 0.008 µM
CC(C)NC(=O)CCCn1/c(=N/C(=O)c2ccccc2)[nH]c2cc(Br)ccc21 [Compound 6, (E)-N-(5-Bromo-1–(4-(isopropylamino)-4-oxobutyl)-1H-benzo[d]imidazol-2(3H)-ylidene)benzamide] |  |  |  |  |  |  | inhibition at 10 µM (ALK; single dose at 10 μM, duplicate, average, read-out: ALK relative inhibition of enzymatic activity): 18.8%
CC(=O)N1CCN(c2ccc(OCC3COC(Cn4ccnc4)(c4ccc(Cl)cc4Cl)O3)cc2)CC1 (centres unmarked) [Ketoconazole, reference compound] |  |  |  |  |  |  | IC50 (CYP1A2): 0.59 µM; IC50 (CYP2C19): 1.3 µM

Now from value to compound, other results behind:

IC50 (ALK; [4]) [µM] | IC50 (HDAC1) [µM] | IC50 (HDAC6) [µM] | IC50 (HDAC8) [µM] | IC50 (HDAC11) [µM] | IC50 (H2228) [µM] | Structure (SMILES) | other results
5.75 | 6.18 | 0.81 | 2.95 | 9.35 |  | CC(C)NC(=O)CCCn1/c(=N/C(=O)c2ccccc2)[nH]c2cc(/C=C/C(=O)NO)ccc21 [Compound 3a, (E)-N-(5-((E)-3-(Hydroxyamino)-3-oxoprop-1-en-1-yl)-1–(4-(isopropylamino)-4-oxobutyl)-1H-benzo[d]imidazol-2(3H)-ylidene)benzamide] | 
0.015 | 2.29 | 0.1 | 2.52 | 1.72 |  | CC(C)NC(=O)[C@H]1CC[C@@H](n2/c(=N/C(=O)c3ccccc3)[nH]c3cc(NC(=O)CCCCCCC(=O)NO)ccc32)CC1 [Compound 3f] | 
3.73 | > 30 | 2.47 | 7.77 | > 30 |  | CC(C)NC(=O)CCCn1/c(=N/C(=O)c2cc(F)cc(F)c2)[nH]c2cc(/C=C/C(=O)NO)ccc21 [Compound 3d, (E)-3,5-Difluoro-N-(5-((E)-3-(hydroxyamino)-3-oxoprop-1-en-1-yl)-1–(4-(isopropylamino)-4-oxobutyl)-1H-benzo[d]imidazol-2(3H)-ylidene)benzamide] | 
0.0052 | > 30 | 2.34 | 2.87 | > 30 | 0.21 ± 0.07 | CC(C)NC(=O)[C@H]1CC[C@@H](n2/c(=N/C(=O)c3ccccc3)[nH]c3ccc(/C=C/C(=O)NO)cc32)CC1 [Compound 3c, (E)-N-(6-((E)-3-(Hydroxyamino)-3-oxoprop-1-en-1-yl)-1-((1S,4S)-4-(isopropylcarbamoyl)cyclohexyl)-1H-benzo[d]imidazol-2(3H)-ylidene)benzamide] | IC50 (ALK): 0.015 µM; fold greater ALK inhibition ability (ALK; hydroxamate moved from C-5 to C-6 position (versus 3b)): 3 fold; IC50 (A549): 7.26 ± 2.66 µM; IC50 (MCF7): 0.98 ± 0.03 µM; IC50 (U87MG): 11.1 ± 0.81 µM; phosphorylation level of Y1604 on ALK [1]: significantly decreased; protein expression level of HDAC1, HDAC6, or HDAC8 [3]: not perturbed
> 10 | 0.84 | 0.21 | 1.78 | 1.42 |  | CCCC(=O)/N=c1\[nH]c2cc(/C=C/C(=O)NO)ccc2n1CCCC(=O)NC(C)C [Compound 3e, 4-((E)-2-(butyrylimino)-5-((E)-3-(hydroxyamino)-3-oxoprop-1-en-1-yl)-2,3-dihydro-1H-benzo[d]imidazol-1-yl)-N-isopropylbutanamide] | 
